Data: patent US11839610B2 (priority 2022, dated 2023)
Read-outs that look alike come from different tables or passages of the source.

Legend:
[1] = tested on: Delta S protein pseudovirus (nCoV-S-Luc-B.1.617.2) in ACE2-293T cells; assay: microbe, parasite or virus in culture; assay type: cell-based; settings: for Levels of viral infection, Delta, Ave.: luciferase activity, Control group as 100%; for IC50: read-out: 50% inhibitory concentrations (IC50) for viral infection, Delta, alkaloid compounds, n = 3
[2] = tested on: Omicron S protein pseudovirus (nCoV-S-Luc-B.1.1.529) in ACE2-293T cells; assay: microbe, parasite or virus in culture; assay type: cell-based; settings: read-out: 50% inhibitory concentrations (IC50) for viral infection, Omicron

Row | Compound | Cell Viability (%) (ACE2-293T cells) | cytotoxic to the ACE2-293T cells (in words) (ACE2-293T cells) | Levels of viral infection, Delta, Ave. ([1]; Conc. 0.1 μM) [%] | Levels of viral infection, Delta, Ave. ([1]; Conc. 1 μM) [%] | Levels of viral infection, Delta, Ave. ([1]; Conc. 10 μM) [%] | IC50 [1] [µM] | IC50 [2] [µM] | Cell Viability (%) (ACE2-293T cells; human) | Levels of viral infection, Delta, Ave. ([1]; Conc. 5 μM) [%] | IC50 ([1]; Pseudovirus) [µM] | IC50 ([2]; Pseudovirus) [µM]
1 | COc1cc2c3cc1Oc1c4c(cc5c1[C@H](Cc1ccc(cc1)Oc1cc(ccc1O)C[C@H]3N(C)CC2)N(C)CC5)OCO4 [Cepharanoline] | 97.24 ± 0.87 | caused no damages | 89.65 | 64.01 | −3.64 | 1.64 ± 0.18 | 1.31 ± 0.07 |  |  |  | 
2 | COc1ccc2cc1Oc1ccc(cc1)C[C@H]1c3cc(c(OC)cc3CCN1C)Oc1c(O)c(OC)cc3c1[C@H](C2)N(C)CC3 [Fangchinoline] |  | caused no damages |  | 64.54 | 7.13 |  |  | 95.56 ± 2.82 | 27.89 | 1.82 ± 0.02 | 1.44 ± 0.06
3 | Cycleanine |  |  | 118.65 | 88.48 | −3.84 | 2.21 ± 0.5 | 0.53 ± 0.03 |  |  |  | 
